IC50 data for one compound are collected here from BindingDB's records for doi:10.1016/j.bmc.2013.03.035 (University of Poitiers, 2013).

pIC50: −log10 of the molar value.

A short description of the experiment: Inhibition of bovine liver beta-glucosidase.

As a reminder, the pIC50 is the IC50 on a negative log10 scale, so that one unit is a factor of ten. Low values mean a large IC50, high ones a small IC50. Compound `CC[C@@H]1NC[C@@H](O)[C@@H](O)[C@H](O)[C@H]1O` gave a pIC50 of 3.31.
